In one data set the test system is 451Lu (melanoma) cells. The data set is described as follows: Bafilomycin clamp experiment (autophagic flux). It counts as cell-based. To be noted: 3 μM, with or without bafilomycin-A1, 24 hours.
The subject of data set [1] is ATG5 WT and ATG5-null MEFs. The data set is described as follows: Long-term colony formation in ATG5+/+ and ATG5-/- MEFs. In kind it is cell-based. To be noted: 2 weeks, 10-300 nM.
Protocol: (G) Long-term colony formation assays were performed with ATG5+/+ and ATG5−/− MEFs treated with DQ661 (2 weeks, 10-300 nM). Cells were subsequently stained with crystal violet and imaged.
The clonogenic assay was performed as previously described. Briefly, cells were suspended in appropriate culture media, and plated in 6-well plates (2×10^3 cells/well). Medium was changed and drug treatment refreshed every 3-4 days for 2 weeks. Cells were subsequently stained with crystal violet and quantified.
For another data set, the system named is A375P cells. The data set is described as follows: Galectin-3 punctae assay (lysosomal membrane permeabilization). In kind it is cell-based. Particulars: 6 hours (LLOMe 3 hr, 2 mM). The procedure:
FIG. 3: Central nitrogen methylation status dictates DNA damage versus lysosomal membrane permeability. […] Cells were imaged with fluorescent microscopy, phospho-H2AX+ cells were scored using ImageJ software analysis and quantified to the right. (B) A375P cells were treated identical to the conditions in (A), with the addition of the positive control LLoMe (3 hr, 2 mM). Cells were subsequently stained with galectin-3 and imaged with fluorescent microscopy. The formation of galectin-3 punctae, which signify lysosomal membrane permeabilization, are pointed out with yellow arrows.
When lysosomes are healthy, galectin-3 is uniformly dispersed throughout the cell. However, when the lysosome is damaged, galectin-3 rapidly localizes to the site of damaged lysosomes, appearing as punctae and marking individual leaky lysosomes.

In data set [2] the test system is 1205Lu melanoma xenografts. The data set is described as follows: 1205Lu melanoma xenograft model. It counts as in vivo, NSG mice. The method, then: (§1) FIG. 5: DQ661 has significant single-agent in vivo activity in melanoma xenograft model. […]. Mice were randomly split into 4 arms and treated with vehicle control (water, i.p.), quinacrine (8 mg/kg, i.p.), DQ660 (8 mg/kg, i.p.) or DQ661 (8 mg/kg, i.p.). Treatments were given as shown by the black arrows, following a regimen of 2 days on treatment followed by 2 days off treatment. (C) Representative electron micrographs from melanoma xenograft tumors harvested after 2 days of treatment according to (B). (D) Average tumor volumes for each treatment arm are shown. Each point represents the mean of N=8 mice per treatment arm and the error bars represent standard error (s.e.) (C) Representative EM for tumors treated in each arm. (E) A schematic for how mice were treated in (F). […]. Mice were randomly split into 3 arms and treated with water (i.p.), DQ661 (2 mg/kg, i.p.) or DQ661 (4 mg/kg, i.p.). Treatments were give as shown by the black arrows, following a regimen of 2 days on treatment followed by 2 days […]. Tumor volume is shown. Each point represents the mean of N=8 mice per treatment arm and the error bars represent s.e. (G) Average tumor growth rate for each treatment arm are shown. (H) Protein lysate was harvested from mouse tumors at the end of the experiment and immunoblotted for LC3B, phospho-4E-BP1 T37_T65, phospho-4E-BP1 S240_S244 and Actin. Quantification of proteins standardized to control mice levels are shown to the right.
(§2) Five to seven-week old NOD-scid gamma (NSG) mice (Jackson Laboratory) were used for xenograft studies with the 1205Lu melanoma cell line. Tumor generation, tumor measurement and tumor harvesting performed as previously described (ref). For the pancreatic cancer model, five to seven-week old C57BL/6 mice (Jackson Laboratory) and maintained under pathogen-free conditions. 2×10^6 G43 cells were subcutaneously injected with an equal volume of matrigel (BD) over the right flank […] and tumors became palpable after 5-6 days. Mice were enrolled on day 6 and given Gemcitabine (120 mg/kg, i.p.). DQ661 (4 mg/kg, i.p.) was given on days 7, 8, 12, 13, 17 and 18. Perpendicular tumor diameters were measured sing electronic calipers and volume was calculated leveraging the formula L×W^2×0.5, where L is the longest dimension and W is the perpendicular dimension. All animal experiments were performed in accordance to the protocols approved by the Institute of Animal Care and Use Committee of the University of Pennsylvania.
. After 1-2 weeks, tumors were palpable and mice were treated with vehicle control (water), quinacrine (8 mg/kg), DQ660 (8 mg/kg) or DQ661 (8 mg/kg) i.p (FIG. 5A). […]. Therefore another 1205Lu xenograft experiment was performed with mice treated with either vehicle control (water, n=6) or DQ661 (2 or 4 mg/kg, n=6) for a period of 14 days (FIG. 5e, 5F).

Data set [3] can be described thus: Tolerability in 1205Lu xenograft-bearing mice. In kind it is in vivo. The procedure: as §1, §2
. After 1-2 weeks, tumors were palpable and mice were treated with vehicle control (water), quinacrine (8 mg/kg), DQ660 (8 mg/kg) or DQ661 (8 mg/kg) i.p (FIG. 5A). […]. […]

Data set [4] has as its system G43 cells. The data set is described as follows: G43 KPC pancreatic cancer syngeneic model. It counts as in vivo, C57BL/6 mice. To be noted: gemcitabine 120 mg/kg i.p. once; DQ661 4 mg/kg i.p. 2 days on 3 days off. The method, then:
FIG. 6: DQ661 potentiates in vivo activity of gemcitabine in KPC pancreatic cancer syngeneic model. (A) 4664 and G43 cells were treated with gemcitabine (72 hr, 3-30 nM). MTT was subsequently added and cell viability was determined by standardizing absorbance to control wells. (B) G43 cells were treated chronically for 2 weeks with gemcitabine (3-30 nM) in the presence or absence of DQ661 (30-300 nM) in colony formation assays. Cells were subsequently stained with crystal violet and imaged. (C) A schematic for how mice were treated in (D). G43 cells were injected into C57BL/6 mice (2×10^6 cells/mouse. Once palpable, mice were treated with vehicle (water, PBS), gemcitabine (120 mg/kg, i.p., once at day 6), DQ661 (4 mg/kg, i.p., starting on day 7 according to the regimen of 2 days on treatment followed by 3 days off treatment) or a combination of gemcitabine and DQ661. (D) Average tumor volumes for each treatment arm are shown. Each point represents the mean of N=8 mice per treatment arm and the error bars represent s.e. (E) Tumor growth rate from (D).
Five to seven-week old NOD-scid gamma (NSG) mice (Jackson Laboratory) were used for xenograft studies with the 1205Lu melanoma cell line. […] Perpendicular tumor diameters were measured sing electronic calipers and volume was calculated leveraging the formula L×W^2×0.5, where L is the longest dimension and W is the perpendicular dimension. […]

The test system of data set [5] is mTORC1. The data set is described as follows: mTOR / LAMP2 co-localization imaging. Particulars: A375P cells, 6 hours, 3 μM.
The subject of data set [6] is mTORC1. Put plainly: Immunoblot of mTORC1 signaling and LC3B, panel of lysosomal inhibitors. To be noted: A375P cells.
For another data set, the system named is autophagy. Particulars: background; cited from earlier work.
Data set [7] concerns G43 cells. Put plainly: MTT viability of 4664 and G43 KPC pancreatic cancer cells. It counts as cell-based, mouse. To be noted: 72 hr. The method, then:
FIG. 6: DQ661 potentiates in vivo activity of gemcitabine in KPC pancreatic cancer syngeneic model. (A) 4664 and G43 cells were treated with gemcitabine (72 hr, 3-30 nM). MTT was subsequently added and cell viability was determined by standardizing absorbance to control wells. (B) G43 cells were treated chronically for 2 weeks with gemcitabine (3-30 nM) in the presence or absence of DQ661 (30-300 nM) in colony formation assays. Cells were subsequently stained with crystal violet and imaged. (C) A schematic for how mice were treated in (D). […]
For MTT assays, cells were plated in 96-well plates (2,000 cells/well), allowed to adhere overnight, and subsequently treated in triplicate for 72 hours. MTT reagent (Roche) was applied, cells were solubilized and absorbance was read at 570 nm, with background subtraction at 690 nm. […] Cells were subsequently stained with crystal violet and quantified. […]

“Also recorded” adds a separate entry of the source.

Turning to `COc1ccc2nc3cc(Cl)ccc3c(NCCCCCCN(C)CCCCCCNc3c4ccc(Cl)cc4nc4ccc(OC)cc34)c2c1` [DQ 661], the “effect on autophagic flux (LC3II/LC3I ratio with vs without bafilomycin-A1)” value in the data set on 451Lu (melanoma) cells is reported as “autophagy inhibitors”. Moreover, in data set [1], the “cytotoxicity in ATG5 WT vs ATG5-null MEFs” value was “equal cytotoxicity in ATG5 WT and ATG5-null MEFs; also recorded: equivalent activity”. Besides, the galectin-3 staining pattern entry in the data set on A375P cells is reported as “punctate distribution of galectin-3”. For the same compound, the tumor growth entry in data set [2] (8 mg/kg i.p., 2 days on / 2 days off) is given as “inhibited tumor growth to the greatest extent”. Further, the “autophagy in tumors (electron microscopy)” value in data set [2] (8 mg/kg i.p., tumors harvested after 2 days of treatment) is “inhibited autophagy as seen by electron microscopy of mouse tumors”. In data set [2] (2 or 4 mg/kg i.p., 14 days), the tumor growth rate result is “significantly slower rates of growth”; the “tumor volume and tumor weight” value is “significant reduction in tumor volume and tumor weight compared to control mice”. In data set [2] (2 or 4 mg/kg i.p., end of experiment), the “Western blotting of tumor lysate (LC3, p62, phospho-4EBP1, phospho-S6)” value was “concurrent in vivo autophagy inhibition and mTORC1 inhibition”. Further, in [3] (8 mg/kg i.p.), the “clinical outcome by day 7” value was “all mice were euthanized due to lethargy and bowel distension”; the “histological analysis of the intestines and liver” value was “Paneth cell dysfunction”; the “weight loss of mice” value is recorded as “greater than 10%”. Moreover, the mice weight result in [3] (2 or 4 mg/kg i.p., 14 days) was “without significantly effect mice weight”. Further, the tumor growth result with G43 cells [4] is given as “significantly impaired”. Further, the “mTOR and lysosomal (LAMP2) co-localization” value in the data set with mTORC1 [5] was “loss of mTOR and lysosomal co-localization”. The “autophagy inhibition (accumulation of LC3II/LC3I levels) among lysosomal inhibitors” value in the data set on mTORC1 [6] (3 μM) is recorded as “greatest ability to inhibit autophagy among the entire panel of lysosomal inhibitors”. Further, in the data set with mTORC1 [6] (DQ661 3 μM, PET 10 μM, Bafilomycin A1 100 nM), the “S6K (and 4E-BP1) phosphorylation” value is “inhibit S6K and 4E-BP1 to a similar degree as the classical control of amino acid starvation”. Moreover, the “mTORC1 activity (Western blotting)” value in the data set on mTORC1 [6] (DQ661 3 μM, Pepstatin A 10 μG/mL, Siramesine 8 μM) was “potently inhibits mTORC1 activity”.

`CCN(CCO)CCCC(C)Nc1ccnc2cc(Cl)ccc12` (centres unmarked) [HCQ, hydroxychloroquine]: the “concentrations required to inhibit autophagy” value with autophagy was “High micromolar concentrations”.

With `Nc1ccn([C@@H]2O[C@H](CO)[C@@H](O)C2(F)F)c(=O)n1` [gemcitabine, reference compound], the “sensitivity of G43 cells relative to parental 4664 cells” value in the data set on G43 cells [7] is given as “resistant to gemcitabine, relative to the parental treatment naïve 4664 cells”. The tumor growth entry in the data set on G43 cells [4] is given as “significantly impaired”.

(Values after patent publication US10774047B2 (THE TRUSTEES OF THE UNIVERSITY OF PENNSYLVANIA, priority 2015, dated 2020).)
